Reference: patent US10426775B2, “Methods for treating Friedreich's ataxia with etravirine” (Fratagene Therapeutics srl, priority 2017, dated 2019)

Experiments:
aconitase = test: Aconitase activity in FRDA lymphoblast extracts (spectrophotometric, 340 nm); format: cell-based, human; settings: GM16214 lymphoblasts, 500 nM etravirine, after 48 hours, compared with GM16215
Procedure: Whole-cell extracts from GM16215 lymphoblasts, GM16214 lymphoblasts and GM16214 lymphoblasts treated with etravirine were prepared in ice-cold CelLytic M buffer (Sigma-Aldrich) supplemented with 2 mM sodium citrate and Complete EDTA-free protease inhibitor cocktail (Roche Diagnostic). Spectrophotometric aconitase assays were performed at 25° C. with 100 μg of cell extracts using the BIOXYTECH Aconitase-340™ Assay (OxisResearch™ 21041). Spectrophotometric citrate synthase activities were assessed at 25° C. with 10-20 μg of cell extracts using the Citrate Synthase Assay Kit (Sigma-Aldrich CS0720). […] For the calculation of the activities, one unit of enzyme was expressed as the amount of protein that converted 1 μmol of substrate per minute at 25° C. Quantitative data are presented as mean±SEM of at least three independent experiments.
To further explore the therapeutic potential of etravirine, we considered its ability to correct some of the defects associated with frataxin loss in cells derived from patients. […] To evaluate whether the increase in frataxin levels promoted by etravirine treatment is sufficient to restore ISC biogenesis in FRDA patient-derived cells, we measured the activity of aconitase upon etravirine treatment and compared it to the activity observed in cells derived from the healthy carrier parent. […]

[1] = system: newly synthesized frataxin mRNA; test: Nascent frataxin transcripts (EU metabolic labeling, Click-iT capture, real-time PCR) in HEK293-fxn; format: cell-based, human; settings: 10 μM, 4 or 8 hours
Description: We then investigated whether the observed increase in frataxin protein levels is due to an upregulation of the frataxin mRNA, either promoted by an increase in the […] rate of frataxin mRNA or by its stabilization. To understand whether etravirine promotes de novo synthesis of frataxin mRNA, we metabolically labeled nascent transcripts through the incorporation of 5-ethynyl uridine (EU). Through a click chemistry-based reaction, biotin was then conjugated to EU-labelled transcripts, thus allowing selective isolation and analysis of newly synthesized mRNA. We therefore quantitatively analyzed the relative amount of newly synthesized frataxin mRNA in etravirine-treated HEK293-fxn cells, compared to untreated control cells. […] We then analyzed the effect of etravirine on the decay of frataxin transcript observed upon treatment with actinomycin. HEK293-fxn cells were treated with actinomycin for 4, 8 or 12 hours in the presence or absence of etravirine and frataxin mRNA was quantitated by RT-PCR.
HEK 293-fxn stably expressing frataxin (A), HEK 293 (B), or FRDA lymphoblast cell line GM16203 (C) were treated with 10 μM etravirine for the indicated time points. Protein extracts were resolved on SDS-PAGE and analyzed by western blot with anti-frataxin antibody and anti-tubulin as a loading control. Etr: etravirine; tub: tubulin; fxn pre: frataxin precursor. […]

`Cc1cc(C#N)cc(C)c1Oc1nc(Nc2ccc(C#N)cc2)nc(N)c1Br` [etravirine] was tested, and the “aconitase activity in FRDA cells” value (aconitase) was “restore aconitase activity” and the “relative amount of newly synthesized frataxin mRNA vs untreated control cells” value [1] was “did not observe any difference”.
